Results from patent US10221137B2, “Herbicidal phenylpyridines” (BASF SE, priority 2015, dated 2019).

Key:
Assay in all cases: greenhouse experiment, post-emergence treatment
Type in all cases: in vivo
Conditions in all cases: application rate of 16 g/ha, post-emergence method; scale from 0 to 100
Setaria viridis = tested on: Setaria viridis
Source text: (§1) The seeds of the test plants were sown separately for each species. For the post-emergence treatment, the test plants were first grown to a height of 3 to 15 cm, depending on the plant habit, and only then treated with the active ingredients which had been suspended or emulsified in water. For this purpose, the test plants were either sown directly and grown in the same containers, or they were first grown separately as seedlings and transplanted into the test containers a few days prior to treatment. Depending on the species, the plants were kept at 10-25° C. or 20-35° C., respectively. The test period extended over 2 to 4 weeks. During this time, the plants were tended, and their response to the individual treatments was evaluated. Evaluation was carried out using a scale from 0 to 100. 100 means no emergence of the plants, or complete destruction of at least the aerial moieties, and 0 means no damage, or normal course of growth. A good herbicidal activity is given at values of at least 70 and a very good herbicidal activity is given at values of at least 85. The plants used in the greenhouse experiments were of the following species: [table]

Chenopodium album = tested on: Chenopodium album
Source text: as §1

Amaranthus retroflexus = tested on: Amaranthus retroflexus
Source text: as §1

Structure (SMILES)	herbicidal activity against Setaria viridis (Setaria viridis)	herbicidal activity against Chenopodium album (Chenopodium album)	herbicidal activity against Amaranthus retroflexus (Amaranthus retroflexus)
COC(=O)C(OC)Oc1cc(-c2ncc(Cl)cc2Cl)ccc1Cl (racemic) [Example 6]	very good herbicidal activity (a very good herbicidal activity is given at values of at least 85)	good herbicidal activity (A good herbicidal activity is given at values of at least 70)	very good herbicidal activity (a very good herbicidal activity is given at values of at least 85)
COc1ccc(CNC(=O)C(OC)Oc2cc(-c3ncc(C(F)(F)F)cc3Cl)c(F)cc2Cl)cc1 (stereo not drawn) [Example 44]	good herbicidal activity (A good herbicidal activity is given at values of at least 70)	very good herbicidal activity (a very good herbicidal activity is given at values of at least 85)	very good herbicidal activity (a very good herbicidal activity is given at values of at least 85)
